US20100297330A1, “YOGHURT CONTAINING HYDROXYTYROSOL AND OTHER BIOPHENOLS WITH A PREVENTIVE NUTRITIONAL ACTIVITY BENEFICIAL TO HUMAN BEINGS” (priority 2007, published 2010)

Columns and labels:
mammals = test: toxicity in mammals (unpublished proprietary studies); type: in vivo; conditions: 2 g/kg of body weight
cell membranes = conditions: cited from earlier work
human cell systems = conditions: cited from earlier work

OCCc1ccc(O)c(O)c1 [HT, Hydroxytyrosol]
toxicity or evident alterations in the internal organs (mammals): does not cause toxicity or evident alterations in the internal organs
permeation of the cell membranes, mechanism (cell membranes): passive mechanism
effect on cytotoxic effects of reactive oxygen species (human cell systems): effectively counteracts the cytotoxic effects
